Laboratory results as given in patent US20240009269A1 (priority 2020, published 2024).
Where two headings read alike, the source gives them in different places.

Experiments:
[1] = test system: tissue-engineered dhBMECs microvessels; test: BBB opening in tissue-engineered BBB microvessels (500 kDa dextran leakage); format: cell-based, human
Procedure: Three-dimensional blood-brain barrier microvessels were fabricated as previously reported (FIGS. 10A and 10B) [Linville, R. M., et al., Biomaterials, 2019. 190-191: p. 24-37] 150 μm diameter and 1 cm long channels were patterned in 7 mg mL^−1 type I collagen (Corning) using nitinol wire (Malin Co.) housed within polydimethylsiloxane (PDMS; Dow Corning). Channels were cross-linked by incubation in 20 mM genipin (Wako Biosciences) for 2 hours to increase cell adhesion. 2dhBMECs were suspended in BBB induction medium at a concentration of 5×10^6 cells mL^−1 and seeded into channels. Microvessels were perfused using BBB induction medium for 24 hours and then switched to BBB maintenance medium. During cell seeding and the first day of perfusion, 10 μM ROCK inhibitor Y27632 (ATCC) was supplemented to increase adhesion. An average shear stress of ˜2 dyn cm^−2 was maintained with a reservoir height difference (Δh) of 3 cm, corresponding to a volumetric flow rate of ˜250 μL h^−1 (FIG. 11D). This shear stress was estimated from the Poiseuille equation: τ=μQ)/2πd3 where μ is the media dynamic viscosity, Q is the volumetric flow rate, and d is the microvessel diameter.
Live-cell imaging was conducted to study dynamic changes in in vitro BBB permeability and microvessel structure. Microvessels were imaged using a 10×objective equipped on an inverted microscope (Nikon Eclipse TiE) maintained at 37° C. and 5% CO2 (FIG. S2C). Epifluorescence illumination was provided by an X-Cite 120LEDBoost (Excelitas Technologies). Phase contrast and fluorescence images were acquired every two minutes with the focal plane set to the microvessel midplane. The entire image collected consists of ten adjacent imaging frames. […] A dextran solute panel comprised of 200 μM Cascade Blue-conjugated 3 kDa dextran (Cat. No. D7132. Thermo Fisher Scientific), 16 μM Alexa Fluor647-conjugated 10 kDa dextran (Cat. No. D22914, Thermo Fisher Scientific), and 1.2 μM fluorescein-conjugated 500 kDa dextran (Cat. No. D7136, Thermo Fisher Scientific) was prepared in BBB maintenance medium. Fluorophores were independently excited and the respective emissions were collected using: Nikon UV-2E/C for 3 kDa dextran (50 ms exposure), Chroma 41008 for 10 kDa dextran (20 ms exposure), and Nikon B-2E/C for 500 kDa dextran (50 ms exposure).
Image processing was performed using ImageJ (NIH) to quantify BBB opening (FIGS. 11A-11D). First, images were cropped to a standard size of 6 mm×0.6 mm. To determine the spatial heterogeneity of BBB permeability, microvessels were sectioned into 10 regions of interest (ROIs), each a 0.6 mm×0.6 mm square (FIG. 11A). For each ROI, the integrated pixel density was plotted over time (FIG. 11A). The permeability (cm s^−1) was calculated using P=(r/2)(1/ΔI)(dI/dt), where r is the vessel radius, ΔI is the increase in fluorescence intensity upon perfusion of the fluorophore, and (dI/dt) is the rate of increase in fluorescence intensity as solute exits into the gel. […] To visually display permeability dynamics, heatmaps were generated from 90 instantaneous permeability values across the 10 ROIs (x-axis) and nine 10-minute periods (y-axis). […] 28(1): p. 41-51 in ImageJ (FIG. 11B). Under baseline conditions, thresholding results in the lumen designated as white (1) and extracellular matrix (ECM) as black (0). […] From binarized images, individual focal leaks were manually counted over time. Leaks emerging from the sides of the image frame were not counted. To quantify the duration of a BBB opening effect, we identified the time at which the last focal leak appeared and termed the focal leak reversibility time constant (τfocal leaks).

[2] = Solubility stated in text; format: physicochemical; conditions: vs 1-10 μM
[3] = test system: human cortical neurons (HCNs, HCN-2 cells)

Compound: CC[C@H](C)[C@H](NC(=O)CN)C(=O)NCC(=O)N[C@@H](C)C(=O)N[C@H](C(=O)N[C@@H](CC(C)C)C(=O)N[C@@H](CCCCN)C(=O)N[C@H](C(=O)N[C@@H](CC(C)C)C(=O)N[C@H](C(=O)N[C@H](C(=O)NCC(=O)N[C@@H](CC(C)C)C(=O)N1CCC[C@H]1C(=O)N[C@@H](C)C(=O)N[C@@H](CC(C)C)C(=O)N[C@H](C(=O)N[C@@H](CO)C(=O)N[C@@H](Cc1c[nH]c2ccccc12)C(=O)N[C@H](C(=O)N[C@@H](CCCCN)C(=O)N[C@@H](CCCNC(=N)N)C(=O)N[C@@H](CCCCN)C(=O)N[C@@H](CCCNC(=N)N)C(=O)N[C@@H](CCC(N)=O)C(=O)N[C@@H](CCC(N)=O)C(N)=O)[C@@H](C)CC)[C@@H](C)CC)[C@@H](C)O)[C@@H](C)O)C(C)C)C(C)C [melittin]
- increase in delivery of 500 kDa dextran across the blood-brain barrier in vitro [1]: ≤ 25 fold
- 500 kDa dextran permeability ([1]; 5 μM melittin for 90 minutes, continuous): high 500 kDa dextran permeability
- average permeability of 500 kDa dextran, fold higher than baseline ([1]; 50 μM·minute dose): ~25 fold
- focal leak density relative to mannitol ([1]; above threshold doses, retrospective comparison): 3 fold
- focal leaks 24 hours after melittin exposure ([1]; all doses, 3-100 μM·minute, 500 kDa dextran): focal leaks were not observed
- barrier function after 24 hours ([1]; high doses): barrier function was regained 24 hours later
- BBBO ([1]; high doses (10-minute 10 μM)): induced sustained BBBO, but did not recover during the 90 minutes of imaging
- BBBO ([1]; intermediate doses (5-minute 5 μM)): induced BBBO and resulted in recovery during the 90 minute imaging period
- character of focal leaks ([1]; intermediate doses (20-50 μM·minute)): transient
- BBBO ([1]; low doses (2-minute 1.5 μM)): did not induce BBBO
- solubility relative to the concentrations for membrane activity [2]: more than 30 fold
- time high viability (≥98%) is maintained ([3]; 0.75 μM melittin): ~23 min
- time for which viability is largely unaffected ([3]; 5 μM melittin): about 20 minutes
- time high viability (≥98%) is maintained ([3]; 5 μM melittin): ~12 min
- time at which the viability reached 50% (τ1/2) ([3]; 5 μM melittin, continuous exposure): ~30 min
- time high viability (≥98%) is maintained ([3]; 10 μM melittin): ~12 min
- decrease of viability ([3]; dose of 100 μM·minute): < 2%
